Target: T1, full-length rat TRPV2 (rTRPV2) (Rattus norvegicus, UniProt Q9WUD2)
T1 sequence (Q9WUD2 1-761): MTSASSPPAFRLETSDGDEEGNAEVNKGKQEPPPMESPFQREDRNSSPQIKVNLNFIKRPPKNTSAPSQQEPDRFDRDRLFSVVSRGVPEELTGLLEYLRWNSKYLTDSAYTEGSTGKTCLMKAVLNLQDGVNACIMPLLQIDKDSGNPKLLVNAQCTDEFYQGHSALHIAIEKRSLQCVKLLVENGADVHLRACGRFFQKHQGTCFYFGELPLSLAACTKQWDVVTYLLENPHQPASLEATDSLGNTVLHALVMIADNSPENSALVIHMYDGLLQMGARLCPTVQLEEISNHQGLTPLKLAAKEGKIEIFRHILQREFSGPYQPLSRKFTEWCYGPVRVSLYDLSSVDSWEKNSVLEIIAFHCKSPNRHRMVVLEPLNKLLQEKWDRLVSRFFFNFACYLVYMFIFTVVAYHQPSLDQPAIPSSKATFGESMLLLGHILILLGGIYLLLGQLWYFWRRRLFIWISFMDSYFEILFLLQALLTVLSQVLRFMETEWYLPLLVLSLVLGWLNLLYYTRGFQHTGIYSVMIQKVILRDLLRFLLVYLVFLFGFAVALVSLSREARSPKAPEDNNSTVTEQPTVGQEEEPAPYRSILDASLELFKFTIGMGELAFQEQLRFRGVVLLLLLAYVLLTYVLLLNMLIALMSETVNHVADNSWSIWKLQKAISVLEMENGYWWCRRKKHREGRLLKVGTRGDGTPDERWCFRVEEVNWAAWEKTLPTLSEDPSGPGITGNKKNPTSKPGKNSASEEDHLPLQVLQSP
Assay: cryo-EM structure
Type: binding

COc1cc(/C=C/C(=O)N2CCC=CC2=O)cc(OC)c1OC [PL, piperlongumine]
cryo-EM structure (3.5 Å, C4 symmetry): The cryo-EM density map and atomic coordinates of PL-bound rat TRPV2 are deposited

— publication PMC8161495 (ACS Central Science, 2021)
